Some test systems named below: 786-0 renal; A549 NSCLC; CAKI-1 renal; HL-60(TB) leukemia; HOP-92 NSCLC; HT29 colon; M14 melanoma; MALME-3M melanoma; OVCAR-3 ovarian; SN12C renal.
What all share (test): inhibition of tumour cell growth, NCI panel, 48 h

Experimental findings from PubChem BioAssay (NCI) are described below.

The structures appear in SMILES notation.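 In this assay, cells in 96-well plates receive the compound at five concentrations for 48 hours. Endpoints are linearly interpolated between the surrounding concentrations. GI50: concentration for 50% inhibition of growth. Definition used: TGI = concentration required for complete inhibition of growth.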

Take `O=c1[nH]c(-c2ccc(C(F)(F)F)cc2)nc2c1CSCC2`: the GI50 with 786-0 renal was 35.3 µM; with A549 NSCLC, 32.9 µM; in the assay on CAKI-1 renal, 13.7 µM; in the assay with HL-60(TB) leukemia, over 100 µM; with HOP-92 NSCLC, 17.1 µM; with HT29 colon, over 76.8 µM. Besides, the GI50 with M14 melanoma is 68.7 µM; in the assay on MALME-3M melanoma, 30.9 µM; in the assay with OVCAR-3 ovarian it was 27 µM; in the assay on SN12C renal, over 100 µM. For the same compound, the TGI is over 100 µM in the assay on 786-0 renal; over 100 µM in the assay on A549 NSCLC; over 100 µM in the assay with CAKI-1 renal; over 100 µM in the assay on HL-60(TB) leukemia; 46.3 µM with HOP-92 NSCLC; over 100 µM in the assay with HT29 colon. The TGI in the assay with M14 melanoma, with MALME-3M melanoma, in the assay on OVCAR-3 ovarian and with SN12C renal was over 100 µM throughout.
On to `O=C(/C=C/c1ccco1)Nc1ncc(Cc2ccc(F)cc2)s1`, for which the GI50 is 0.157 µM in the assay with 786-0 renal; 0.118 µM in the assay on A549 NSCLC; 0.0525 µM in the assay on CAKI-1 renal; 0.0533 µM in the assay with HL-60(TB) leukemia; 8.56 µM in the assay on HOP-92 NSCLC; 0.0366 µM in the assay on HT29 colon. For the same compound, the GI50 is 0.036 µM with M14 melanoma, 0.249 µM in the assay with MALME-3M melanoma, 0.0336 µM in the assay on OVCAR-3 ovarian and 0.189 µM with SN12C renal. The TGI with 786-0 renal was over 100 µM; with A549 NSCLC, over 100 µM; in the assay on CAKI-1 renal it was over 100 µM; in the assay with HL-60(TB) leukemia, 0.185 µM; in the assay on HOP-92 NSCLC it was over 100 µM; with HT29 colon it was over 100 µM. For the same compound, the TGI in the assay on M14 melanoma is over 100 µM; in the assay on MALME-3M melanoma, over 100 µM; with OVCAR-3 ovarian it was 0.141 µM; in the assay with SN12C renal it was over 100 µM.
As to `CCNCCNc1cc(-c2ccc(F)cc2)c(C#N)c2nc3ccccc3n12`, the GI50 was 1.77 µM with 786-0 renal; 4.78 µM with A549 NSCLC; 4 µM in the assay on CAKI-1 renal; 2.09 µM in the assay on HL-60(TB) leukemia; 2.82 µM in the assay with HOP-92 NSCLC; 3.06 µM in the assay with HT29 colon. Further, the GI50 with M14 melanoma is 1.97 µM; in the assay with MALME-3M melanoma, 1.77 µM; with OVCAR-3 ovarian, 1.97 µM; in the assay with SN12C renal, 3.89 µM. Also, the TGI with 786-0 renal was 3.45 µM; with A549 NSCLC, 15.4 µM; with CAKI-1 renal it was 15.4 µM; with HL-60(TB) leukemia it was 4.36 µM; with HOP-92 NSCLC, 8.12 µM; with HT29 colon, 11 µM. For the same compound, the TGI with M14 melanoma was 3.63 µM; in the assay with MALME-3M melanoma, 3.45 µM; in the assay on OVCAR-3 ovarian, 4.36 µM; in the assay on SN12C renal, 14.4 µM.
Regarding `C[C@H]1[C@@H](OCC(CO[C@H]2O[C@@H]3O[C@@]4(C)CC[C@H]5[C@H](C)CC[C@@H]([C@H]2C)[C@@]35OO4)=NOCC(=O)O)OC2O[C@@]3(C)CC[C@H]4[C@H](C)CC[C@@H]1[C@@]24OO3` (stereo partly drawn), the GI50 in the assay on 786-0 renal is 0.112 µM; with A549 NSCLC, 0.0865 µM; with CAKI-1 renal, 0.117 µM; in the assay on HL-60(TB) leukemia, under 0.01 µM; in the assay with HOP-92 NSCLC, under 0.01 µM; in the assay with HT29 colon, under 0.01 µM. Also, the GI50 with M14 melanoma is 0.205 µM; in the assay on MALME-3M melanoma, under 0.0245 µM; in the assay on OVCAR-3 ovarian it was under 0.0188 µM; with SN12C renal, 0.0215 µM. Also, the TGI with 786-0 renal was found to be 23 µM; with A549 NSCLC, 15.9 µM; with CAKI-1 renal it was 3.12 µM; with HL-60(TB) leukemia it was 13.3 µM; with HOP-92 NSCLC, 0.0621 µM; in the assay on HT29 colon, 15 µM. In addition, the TGI was determined as 18.8 µM with M14 melanoma and 1.02 µM in the assay with SN12C renal.
Turning to `CC[C@@H]1OC2(C)CC(S(=O)(=O)c3ccccc3)CC1O2` (stereo partly drawn), the TGI with 786-0 renal, in the assay on A549 NSCLC, in the assay with CAKI-1 renal, in the assay on HL-60(TB) leukemia, in the assay on HOP-92 NSCLC and with HT29 colon was over 100 µM in each case. Moreover, the TGI with M14 melanoma, in the assay with MALME-3M melanoma, in the assay on OVCAR-3 ovarian and with SN12C renal was over 100 µM each time.
For `COc1ccccc1-n1c(SCc2cc(OC)c(OC)c(OC)c2)nc2ccc(Cl)cc2c1=O`, the GI50 is 4.46 µM with 786-0 renal; 2.87 µM in the assay on A549 NSCLC; 2.8 µM with CAKI-1 renal; 2.99 µM with HL-60(TB) leukemia; 2.78 µM in the assay on HOP-92 NSCLC; 2.91 µM with HT29 colon. In addition, the GI50 in the assay with M14 melanoma was 2.22 µM; in the assay on MALME-3M melanoma, 8.76 µM; in the assay on OVCAR-3 ovarian it was 2.21 µM; with SN12C renal it was 7.81 µM. The TGI with 786-0 renal was over 100 µM; with A549 NSCLC, over 100 µM; with CAKI-1 renal, over 100 µM; with HL-60(TB) leukemia, 18.7 µM; in the assay on HOP-92 NSCLC it was 99.6 µM; in the assay on HT29 colon, over 100 µM. Also, the TGI is over 100 µM in the assay with M14 melanoma, over 100 µM in the assay with MALME-3M melanoma, 15.9 µM in the assay on OVCAR-3 ovarian and over 100 µM in the assay with SN12C renal.
Take `CC(=O)N1CC(F)(F)c2c(Sc3ncc(N4CCC5(CC4)COC[C@H]5N)nc3N)cccc21`: the GI50 with 786-0 renal was 10.8 µM; in the assay with A549 NSCLC, 23.1 µM; in the assay on CAKI-1 renal it was 3.68 µM; with HL-60(TB) leukemia, 18.3 µM; in the assay on HOP-92 NSCLC it was 0.259 µM; in the assay with HT29 colon it was 14.2 µM. In addition, the GI50 was 17.9 µM in the assay with M14 melanoma, 15.5 µM in the assay with MALME-3M melanoma, 16.9 µM in the assay on OVCAR-3 ovarian and 25.8 µM with SN12C renal. In addition, the TGI is 27.1 µM in the assay on 786-0 renal; over 100 µM with A549 NSCLC; 30 µM in the assay on CAKI-1 renal; 36.4 µM in the assay on HL-60(TB) leukemia; 3.64 µM in the assay on HOP-92 NSCLC; 52.9 µM with HT29 colon. Further, the TGI was 37.8 µM with M14 melanoma, 31.5 µM with MALME-3M melanoma, 61.5 µM in the assay with OVCAR-3 ovarian and over 100 µM in the assay with SN12C renal.
Turning to `COc1ccc(C(=O)C=C2NCCN2)cc1`, the TGI with 786-0 renal, with A549 NSCLC, with CAKI-1 renal, with HL-60(TB) leukemia, with HOP-92 NSCLC and in the assay on HT29 colon was over 100 µM each time. The TGI in the assay on M14 melanoma, in the assay on MALME-3M melanoma, with OVCAR-3 ovarian and with SN12C renal was over 100 µM in each case.
Consider `Cn1c(O)c(C(=O)Nc2ccc([N+](=O)[O-])cc2)c(=O)n(C)c1=S`, for which the TGI in the assay on 786-0 renal is 8.81 µM; in the assay on A549 NSCLC it was 32.5 µM; in the assay with CAKI-1 renal, 10.6 µM; in the assay on HL-60(TB) leukemia, over 100 µM; in the assay on HOP-92 NSCLC, 4.7 µM; in the assay on HT29 colon, 8.33 µM. For the same compound, the TGI is 22.9 µM in the assay on M14 melanoma, 5.03 µM in the assay on MALME-3M melanoma, 8.02 µM with OVCAR-3 ovarian and over 70.7 µM in the assay with SN12C renal.
